Organism: Rattus norvegicus
Experiment: Open TG-GATES - Regimen: Single
Assay type: toxicity, organism-based, Sprague-Dawley
Set-up: regimen Single, gender Male, age 6 weeks
Conditions: in vivo, po, route gavage; for TP / gamma-GTP / A/G / ALP / ALT / AST / BUN / CRE / Ca / Cl / GLC / IP / K / LDH / Na / PL / RALB / TC / TG: tissue Plasma; for APTT / Bas / Eos / Fbg / Hb / Ht / Lym / MCH / MCHC / MCV / Mono / Neu / PT / Plat / RBC / Ret / WBC: tissue Blood; for KIDNEY_L / KIDNEY_R / KIDNEY_TOTAL: tissue Kidney; for LIVER: tissue Liver
[1] = 1000 mg/kg, 24 h, dose level Middle
[2] = 2000 mg/kg, 3 h, dose level High
[3] = 2000 mg/kg, 6 h, dose level High
[4] = 2000 mg/kg, 9 h, dose level High
[5] = 2000 mg/kg, 24 h, dose level High

O=C(O)c1ccccc1Nc1ccccc1 [FENAMIC ACID]
TP [1]: 5.6 g/dL | gamma-GTP [1]: 1 IU/L | TERMINAL_BW [2]: 207.1 g | APTT [2]: 15.4 s | Bas [2]: 0.8% | Eos [2]: 0.8% | Fbg [2]: 258.2 mg/dL | Hb [2]: 13.6 g/dL | Ht [2]: 39.9% | Lym [2]: 67.4% | MCH [2]: 20.6 pg | MCHC [2]: 34.1% | MCV [2]: 60.6 fL | Mono [2]: 3.2% | Neu [2]: 28% | PT [2]: 13.9 s | Plat [2]: 113.5 x10_4/uL | RBC [2]: 658.8 x10_4/ul | Ret [2]: 7.9% | WBC [2]: 76.3 x10_2/uL | KIDNEY_L [2]: 0.9 g | KIDNEY_R [2]: 0.9 g | KIDNEY_TOTAL [2]: 1.9 g | LIVER [2]: 7.7 g | A/G [2]: 0.9 | ALP [2]: 1464.2 IU/L | ALT [2]: 41 IU/L | AST [2]: 75.6 IU/L | BUN [2]: 10.8 mg/dL | CRE [2]: 0.1 mg/dL | Ca [2]: 10.9 mg/dL | Cl [2]: 102.8 meq/L | GLC [2]: 181.8 mg/dL | IP [2]: 10.9 mg/dL | K [2]: 4.1 meq/L | LDH [2]: 88.2 IU/L | Na [2]: 143.4 meq/L | PL [2]: 93.4 mg/dL | RALB [2]: 2.6 g/dL | TC [2]: 52 mg/dL | TG [2]: 28.4 mg/dL | TP [2]: 5.5 g/dL | gamma-GTP [2]: 1.2 IU/L | TERMINAL_BW [3]: 206.9 g | APTT [3]: 15.5 s | Bas [3]: 0.8% | Eos [3]: 1% | Fbg [3]: 277.4 mg/dL | Hb [3]: 13.7 g/dL | Ht [3]: 40.6% | Lym [3]: 71.2% | MCH [3]: 21 pg | MCHC [3]: 33.6% | MCV [3]: 62.6 fL | Mono [3]: 3% | Neu [3]: 24% | PT [3]: 14.2 s | Plat [3]: 122.7 x10_4/uL | RBC [3]: 649.2 x10_4/ul | Ret [3]: 8.1% | WBC [3]: 106.2 x10_2/uL | KIDNEY_L [3]: 1 g | KIDNEY_R [3]: 1 g | KIDNEY_TOTAL [3]: 2 g | LIVER [3]: 7.4 g | A/G [3]: 0.9 | ALP [3]: 1541.4 IU/L | ALT [3]: 36.4 IU/L | AST [3]: 76.2 IU/L | BUN [3]: 12 mg/dL | CRE [3]: 0.1 mg/dL | Ca [3]: 11.2 mg/dL | Cl [3]: 105.6 meq/L | GLC [3]: 133.2 mg/dL | IP [3]: 11.6 mg/dL | K [3]: 4 meq/L | LDH [3]: 92.8 IU/L | Na [3]: 145.4 meq/L | PL [3]: 105.2 mg/dL | RALB [3]: 2.6 g/dL | TC [3]: 49.8 mg/dL | TG [3]: 34.2 mg/dL | TP [3]: 5.6 g/dL | gamma-GTP [3]: 1 IU/L | TERMINAL_BW [4]: 209.9 g | APTT [4]: 21.5 s | Bas [4]: 0.6% | Eos [4]: 1% | Fbg [4]: 307.4 mg/dL | Hb [4]: 13.6 g/dL | Ht [4]: 39.9% | Lym [4]: 64.6% | MCH [4]: 20.7 pg | MCHC [4]: 34% | MCV [4]: 60.8 fL | Mono [4]: 3.2% | Neu [4]: 30.4% | PT [4]: 14.8 s | Plat [4]: 110.5 x10_4/uL | RBC [4]: 656.8 x10_4/ul | Ret [4]: 8.2% | WBC [4]: 93.3 x10_2/uL | KIDNEY_L [4]: 1 g | KIDNEY_R [4]: 0.9 g | KIDNEY_TOTAL [4]: 1.9 g | LIVER [4]: 7.5 g | A/G [4]: 0.9 | ALP [4]: 1863.4 IU/L | ALT [4]: 41.8 IU/L | AST [4]: 82.2 IU/L | BUN [4]: 14.6 mg/dL | CRE [4]: 0.1 mg/dL | Ca [4]: 11.1 mg/dL | Cl [4]: 105.6 meq/L | GLC [4]: 144.6 mg/dL | IP [4]: 11.3 mg/dL | K [4]: 3.9 meq/L | LDH [4]: 80.8 IU/L | Na [4]: 145.6 meq/L | PL [4]: 105.8 mg/dL | RALB [4]: 2.7 g/dL | TC [4]: 45 mg/dL | TG [4]: 50.2 mg/dL | TP [4]: 5.7 g/dL | gamma-GTP [4]: 1 IU/L | TERMINAL_BW [5]: 211.9 g | APTT [5]: 15.6 s | Bas [5]: 1% | Eos [5]: 0.6% | Fbg [5]: 436 mg/dL | Hb [5]: 13.9 g/dL | Ht [5]: 40.7% | Lym [5]: 55.8% | MCH [5]: 20.5 pg | MCHC [5]: 34.1% | MCV [5]: 60.2 fL | Mono [5]: 3.4% | Neu [5]: 39% | PT [5]: 15.2 s | Plat [5]: 121.1 x10_4/uL | RBC [5]: 675.2 x10_4/ul | Ret [5]: 8.7% | WBC [5]: 138 x10_2/uL | KIDNEY_L [5]: 1 g | KIDNEY_R [5]: 1 g | KIDNEY_TOTAL [5]: 2 g | LIVER [5]: 8.4 g | A/G [5]: 0.8 | ALP [5]: 2104 IU/L | ALT [5]: 41.6 IU/L | AST [5]: 62.2 IU/L | BUN [5]: 19.2 mg/dL | CRE [5]: 0.1 mg/dL | Ca [5]: 11.2 mg/dL | Cl [5]: 102.8 meq/L | GLC [5]: 145.8 mg/dL | IP [5]: 9.4 mg/dL | K [5]: 3.7 meq/L | LDH [5]: 131.8 IU/L | Na [5]: 141.2 meq/L | PL [5]: 91.4 mg/dL | RALB [5]: 2.6 g/dL | TC [5]: 38.2 mg/dL | TG [5]: 49.2 mg/dL | TP [5]: 5.7 g/dL | gamma-GTP [5]: 1 IU/L

Reference: ChEMBL document CHEMBL3885861, “Open TG-GATES”
